Measured values as given in US12371428B2 (Exelixis, Inc., priority 2019, dated 2025).
Structures can show the parent of a compound that is named as a salt.

Experiments:
[1] = molecular target: Mer (phospho-Mer, MERTK-transfected 293A cells) (Homo sapiens (Human), UniProt Q12866); assay: Mer autophosphorylation ELISA in transient transfected 293A cells (Example H); type: cell-based; conditions: cellular activity; Mer autophosphorylation ELISA in transient transfected 293A cells
How it was run: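 MERTK-transfected 293A; 8-pt dose, 1 h, serum-free, 0.3% DMSO. Cold lysis with orthovanadate and protease/phosphatase inhibitors. Phospho-Mer by DuoSet IC ELISA vs phospho-Mer standard. IC50: 4-PL fit; DMSO = 100%, reference inhibitor = 0%.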

[2] = molecular target: Human MER (residues 528-999) (Homo sapiens (Human), UniProt Q12866); assay: Human Mer kinase assay, HTRF KinEase (Example C-2); type: biochemical; conditions: protocol of Example C-2 (other compounds)
Human MER (residues 528-999), sequence (Q12866 528-999): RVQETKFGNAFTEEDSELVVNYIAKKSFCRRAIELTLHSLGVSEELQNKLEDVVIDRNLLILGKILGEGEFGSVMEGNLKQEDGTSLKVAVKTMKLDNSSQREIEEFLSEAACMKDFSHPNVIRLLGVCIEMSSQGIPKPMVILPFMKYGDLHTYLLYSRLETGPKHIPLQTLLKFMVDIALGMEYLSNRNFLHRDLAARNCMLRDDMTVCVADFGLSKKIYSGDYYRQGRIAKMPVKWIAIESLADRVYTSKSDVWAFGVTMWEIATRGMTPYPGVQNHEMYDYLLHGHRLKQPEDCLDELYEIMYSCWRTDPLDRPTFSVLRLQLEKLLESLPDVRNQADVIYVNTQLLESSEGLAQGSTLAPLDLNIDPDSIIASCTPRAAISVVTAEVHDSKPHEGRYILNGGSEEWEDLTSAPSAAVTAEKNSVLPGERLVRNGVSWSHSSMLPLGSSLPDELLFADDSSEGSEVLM
How it was run: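 HTRF KinEase TK assay with MER 528-999 (1 ng/well) in enzymatic buffer plus 5 mM MgCl2 and 1 mM DTT, biotinylated peptide substrate and ATP at Km (40 μM), 3% DMSO final, 60 min at room temperature. Stopped with EDTA detection mix (SA-XL665, TK antibody-Eu3+), read at 665/620 nm after 60 min; IC50 from 10-point 4-parameter fit, normalized to DMSO and 1 μM reference.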

[3] = molecular target: Met (phospho-Met, HGF-stimulated PC-3 prostate cancer cells) (Homo sapiens (Human), UniProt P08581); assay: Met autophosphorylation ELISA in PC-3 cells (Example F); type: cell-based; conditions: cellular activity; Met autophosphorylation ELISA in PC-3 cells; read-out: c-Met IC50
Met (phospho-Met, HGF-stimulated PC-3 prostate cancer cells), sequence (P08581 25-1390): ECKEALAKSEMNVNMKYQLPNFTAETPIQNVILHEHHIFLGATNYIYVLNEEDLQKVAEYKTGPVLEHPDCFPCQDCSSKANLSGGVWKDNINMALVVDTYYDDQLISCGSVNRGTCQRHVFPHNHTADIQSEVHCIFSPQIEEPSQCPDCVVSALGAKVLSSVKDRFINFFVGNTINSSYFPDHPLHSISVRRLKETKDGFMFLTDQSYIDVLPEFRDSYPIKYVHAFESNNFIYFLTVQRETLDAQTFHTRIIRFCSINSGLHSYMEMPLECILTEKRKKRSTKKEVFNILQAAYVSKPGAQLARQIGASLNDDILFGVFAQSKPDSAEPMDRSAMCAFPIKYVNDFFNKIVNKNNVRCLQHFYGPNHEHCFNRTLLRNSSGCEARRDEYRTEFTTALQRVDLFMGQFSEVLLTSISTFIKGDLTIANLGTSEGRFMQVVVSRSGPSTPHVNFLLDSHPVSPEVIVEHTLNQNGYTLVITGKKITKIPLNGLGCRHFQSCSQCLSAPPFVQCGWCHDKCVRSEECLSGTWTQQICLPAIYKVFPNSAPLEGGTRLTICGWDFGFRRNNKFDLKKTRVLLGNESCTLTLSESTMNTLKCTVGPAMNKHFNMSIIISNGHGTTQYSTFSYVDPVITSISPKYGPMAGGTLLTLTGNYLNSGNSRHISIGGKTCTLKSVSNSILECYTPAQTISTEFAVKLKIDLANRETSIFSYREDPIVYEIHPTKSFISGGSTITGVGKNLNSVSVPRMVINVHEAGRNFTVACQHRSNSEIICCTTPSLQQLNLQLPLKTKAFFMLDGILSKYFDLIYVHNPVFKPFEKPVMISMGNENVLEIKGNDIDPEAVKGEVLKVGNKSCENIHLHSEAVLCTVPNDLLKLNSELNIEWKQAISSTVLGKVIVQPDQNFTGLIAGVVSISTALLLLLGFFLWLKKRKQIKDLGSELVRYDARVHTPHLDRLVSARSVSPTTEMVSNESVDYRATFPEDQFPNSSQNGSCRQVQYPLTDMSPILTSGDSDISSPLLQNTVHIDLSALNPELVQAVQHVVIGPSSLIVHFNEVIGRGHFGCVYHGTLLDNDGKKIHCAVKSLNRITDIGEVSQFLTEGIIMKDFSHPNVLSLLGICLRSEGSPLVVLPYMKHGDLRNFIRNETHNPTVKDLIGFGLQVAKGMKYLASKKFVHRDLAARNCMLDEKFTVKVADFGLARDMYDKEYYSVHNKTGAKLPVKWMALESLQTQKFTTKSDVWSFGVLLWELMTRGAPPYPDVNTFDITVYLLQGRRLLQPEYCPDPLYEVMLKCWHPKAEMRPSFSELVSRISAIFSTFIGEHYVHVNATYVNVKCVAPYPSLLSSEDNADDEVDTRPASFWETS
How it was run: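 IC50 values derive from a 4-parameter logistic fit of phospho-Met (panTyr) sandwich ELISA signals in PC-3 lysates, scaled between DMSO and reference-inhibitor wells. Cells, starved 3 h in serum-free medium, had 1 h compound exposure (8 doses, 0.3% DMSO) before 10 min stimulation with 100 ng/mL HGF.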

[4] = molecular target: Human MET (residues 956-1390) (Homo sapiens (Human), UniProt P08581); assay: Human Met kinase assay, HTRF KinEase (Example D-2); type: biochemical; conditions: protocol of Example D-2 (other compounds); read-out: c-Met IC50
Human MET (residues 956-1390), sequence (P08581 956-1390): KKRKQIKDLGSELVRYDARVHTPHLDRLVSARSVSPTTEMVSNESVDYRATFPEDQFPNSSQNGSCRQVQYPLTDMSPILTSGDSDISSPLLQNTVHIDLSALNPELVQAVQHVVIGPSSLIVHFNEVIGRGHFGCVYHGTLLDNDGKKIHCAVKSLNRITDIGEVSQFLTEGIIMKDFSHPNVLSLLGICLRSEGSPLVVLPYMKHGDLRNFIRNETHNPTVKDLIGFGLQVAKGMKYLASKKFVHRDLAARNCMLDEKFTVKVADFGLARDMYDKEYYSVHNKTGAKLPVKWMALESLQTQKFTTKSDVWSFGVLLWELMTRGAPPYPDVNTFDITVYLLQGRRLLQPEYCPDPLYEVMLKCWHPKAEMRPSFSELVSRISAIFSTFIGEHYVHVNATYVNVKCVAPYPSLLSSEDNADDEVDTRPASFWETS
How it was run: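 HTRF KinEase assay on MET residues 956-1390 (0.1 ng/well) in buffer with 5 mM MgCl2, 1 mM DTT and 1 mM MnCl2, with biotinylated peptide substrate, ATP at Km, 10 compound concentrations and 3% DMSO final, run 40 min at room temperature. The […] signal was normalized to DMSO and to 1 μM reference compound, and IC50 came from a 4-parameter logistic fit.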

Measured: IC50

Mer (phospho-Mer, MERTK-transfected 293A cells), sequence (Q12866 21-999): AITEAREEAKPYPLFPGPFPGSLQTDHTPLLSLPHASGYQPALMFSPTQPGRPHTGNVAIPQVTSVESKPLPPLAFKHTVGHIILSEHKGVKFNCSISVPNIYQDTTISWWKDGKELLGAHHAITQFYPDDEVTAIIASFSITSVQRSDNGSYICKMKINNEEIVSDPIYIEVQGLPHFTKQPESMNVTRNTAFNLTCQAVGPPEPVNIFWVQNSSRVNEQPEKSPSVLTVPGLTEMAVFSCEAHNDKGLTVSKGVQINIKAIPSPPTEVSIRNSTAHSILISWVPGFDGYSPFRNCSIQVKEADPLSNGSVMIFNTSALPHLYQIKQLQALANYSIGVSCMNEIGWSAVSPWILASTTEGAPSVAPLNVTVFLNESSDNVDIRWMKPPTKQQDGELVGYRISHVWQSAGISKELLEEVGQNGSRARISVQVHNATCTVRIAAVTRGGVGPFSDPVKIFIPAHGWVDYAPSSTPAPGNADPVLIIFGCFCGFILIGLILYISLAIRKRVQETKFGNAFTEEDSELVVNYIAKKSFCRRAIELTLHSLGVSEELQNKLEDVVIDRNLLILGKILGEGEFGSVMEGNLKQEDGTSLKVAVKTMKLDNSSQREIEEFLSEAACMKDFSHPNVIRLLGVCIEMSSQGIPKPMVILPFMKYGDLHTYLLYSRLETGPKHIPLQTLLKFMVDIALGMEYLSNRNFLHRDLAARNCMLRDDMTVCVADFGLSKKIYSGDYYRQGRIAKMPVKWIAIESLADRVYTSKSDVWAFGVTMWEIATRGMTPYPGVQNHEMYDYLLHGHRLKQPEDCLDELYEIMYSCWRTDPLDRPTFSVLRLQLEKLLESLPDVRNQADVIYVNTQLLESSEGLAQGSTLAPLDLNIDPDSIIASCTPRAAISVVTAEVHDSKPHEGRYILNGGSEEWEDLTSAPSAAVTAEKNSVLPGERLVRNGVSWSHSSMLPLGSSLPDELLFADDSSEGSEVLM

COc1cc2nccc(Oc3ccc(NC(=O)c4cnc(C)c(-c5ccc(F)cc5)c4O)cc3F)c2nc1OC [Compound 28, N-[4-[(6,7-Dimethoxy-1,5-naphthyridin-4-yl)oxy]-3-fluorophenyl]-5-(4-fluorophenyl)-4-hydroxy-6-methylpyridine-3-carboxamide]
< 100 nM: all assays above

COc1cc2nccc(Oc3ccc(NC(=O)c4cn(C(C)C)c(C)c(-c5ccccc5)c4=O)cc3F)c2nc1OC [Compound 29, N-[4-[(6,7-Dimethoxy-1,5-naphthyridin-4-yl)oxy]-3-fluorophenyl]-6-methyl-4-oxo-5-phenyl-1-propan-2-ylpyridine-3-carboxamide hydrochloride]
< 100 nM: all assays above

COc1cc2nccc(Oc3ccc(NC(=O)c4cnc(C)c(-c5ccc(F)cc5)c4O)cc3)c2nc1OC [Compound 119, N-[4-[(6,7-Dimethoxy-1,5-naphthyridin-4-yl)oxy]phenyl]-5-(4-fluorophenyl)-4-hydroxy-6-methylpyridine-3-carboxamide]
< 100 nM: all assays above

COc1cnc2c(Oc3ccc(NC(=O)c4cncc(-c5ccc(F)cc5)c4O)cc3F)ccnc2c1 [Compound 120, N-[3-Fluoro-4-[(7-methoxy-1,5-naphthyridin-4-yl)oxy]phenyl]-5-(4-fluorophenyl)-4-hydroxypyridine-3-carboxamide]
< 100 nM: all assays above

COc1cnc2c(Oc3ccc(NC(=O)c4cn(C(C)C)c(C)c(-c5ccc(F)cc5)c4=O)cc3F)ccnc2c1 [Compound 121, N-[3-Fluoro-4-[(7-methoxy-1,5-naphthyridin-4-yl)oxy]phenyl]-5-(4-fluorophenyl)-6-methyl-4-oxo-1-propan-2-ylpyridine-3-carboxamide]
< 100 nM: all assays above

COc1cc2nccc(Oc3ccc(NC(=O)c4cn(C(C)C)cc(-c5ccc(F)cc5)c4=O)cc3)c2nc1OC [Compound 122, N-[4-[(6,7-Dimethoxy-1,5-naphthyridin-4-yl)oxy]phenyl]-5-(4-fluorophenyl)-4-oxo-1-propan-2-ylpyridine-3-carboxamide]
< 100 nM: all assays above

COc1cnc2c(Oc3ccc(NC(=O)c4cn(C(C)C)cc(-c5ccc(F)cc5)c4=O)cc3F)ccnc2c1 [Compound 123, N-[3-Fluoro-4-[(7-methoxy-1,5-naphthyridin-4-yl)oxy]phenyl]-5-(4-fluorophenyl)-4-oxo-1-propan-2-ylpyridine-3-carboxamide]
< 100 nM: all assays above

COc1cc2nccc(Oc3ccc(NC(=O)c4cn(-c5cccnc5)cc(-c5ccc(F)cc5)c4=O)cc3F)c2nc1OC [Compound 125, N-[4-[(6,7-Dimethoxy-1,5-naphthyridin-4-yl)oxy]-3-fluorophenyl]-5-(4-fluorophenyl)-4-oxo-1-pyridin-3-ylpyridine-3-carboxamide]
< 100 nM: all assays above
